# Assay results reported in paper PMC11505029, “Isatin Bis-Imidathiazole Hybrids Identified as FtsZ Inhibitors with On-Target Activity Against Staphylococcus aureus” (Antibiotics, 2024).
# Entries after “also recorded” stand apart in the source; their conditions may differ.
# What was measured:
# C. albicans ATCC 10231 = assay: broth microdilution antimicrobial activity, C. albicans reference strain; type: cell-based, Candida albicans; details: 100 μM, growth relative to positive control, mean ± SD
# Procedure: Reference bacterial strains of Staphylococcus aureus (ATCC 25923), Escherichia coli (ATCC 25922), and Candida albicans (ATCC 10231) were used in this study as Gram-positive, Gram-negative, and fungal models, respectively. These reference strains were purchased from the American Type Culture Collection (ATCC, Manassas, VA, USA); bacterial cultures were routinely grown at 37 °C on 5% blood agar plate, while fungal cultures on Sabouraud Dextrose Agar (Biolife Italiana S.r.l., Milan, Italy).
# The dry powder of the isatin derivatives was resuspended in dimethylsulfoxide (DMSO) at 20 mM and used as stock solutions. For biological investigations, compounds were used in the range 100–0.78 µM, and the solvent in the corresponding percentage range.
# The antimicrobial activity of the compounds was assessed by a well-established broth microdilution procedure in microtiter plates and in compliance with the Clinical and laboratory Standard Institute (CLSI) guidelines (Clinical and Laboratory Standards Institute, Wayne, PA, USA). In short, microbial inocula were prepared at 0.5 McFarland in PBS and, subsequently, bacterial suspensions were diluted 1:200 in Mueller–Hinton broth (Sigma-Aldrich, St. Louis, MO, USA), while fungal inoculum was diluted 1:20 in RPMI-1640 medium (Gibco®, ThermoFisher Scientific Inc., Waltham, MA, USA), containing 2% glucose and 0.3% levo-glutamine buffered to pH 7.0 with 0.165 M 3-(N-morpholino)propanesulfonic acid (MOPS). A total of 100 µL of these microbial suspensions were introduced in a 96-well microplate and incubated with 100 µL of the compounds, two-fold serially diluted in the range of 100–0.19 µM. Positive controls (microbial suspensions in regular media), negative controls (only compounds), and solvent controls (microbial suspensions incubated with DMSO dilutions) were included in the tests. The plate was incubated at 37 °C for 24 h, and subsequently, the optical density at 630 nm (OD630nm) was spectrophotometrically measured. Each experiment was carried out with three technical replicates (i.e., three wells per sample) and repeated at least two times for statistical power. […] IC50 values, corresponding to the concentration of the compound giving rise to an inhibition of growth of 50%, were obtained by interpolation on dose–response curves generated by plotting the percentages of growth inhibition, relative to the positive control (set to 100% of growth), as a function of the tested concentrations (on a logarithm scale). Statistical analysis was carried out using GraphPad Prism version 9.4.1 for Windows (GraphPad Software, San Diego, CA, USA, www.graphpad.com).
# [1] = system: human red blood cells (hRBCs); assay: hemolytic assay; type: cell-based; details: for Hemolytic activity, percentage values: mean ± SD
# Procedure: The hemolytic activity of some selected compounds was evaluated as the amount of hemoglobin released by the disruption of human red blood cells (hRBCs). For the experiments, fresh hRBCs, obtained from peripheral blood of anonymous blood donors available for research purposes, were collected by centrifugation at 1500 g for 10 min, washed 3 times with PBS, and resuspended to a final concentration of 4% w/v hRBCs in PBS. Then, 100 µL of hRBCs suspension and an equal volume of the 2-fold dilutions of the […] were mixed in a 96-well plate and incubated for 1 h at 37 °C. […] Untreated hRBCs (incubated with PBS) and hRBCs incubated with 1% Triton X-100 were employed as negative and positive controls, respectively. The hemolysis percentage was calculated as [OD405nm (sample) − OD405nm (negative control)]/[OD405nm (positive control) − OD405nm (negative control)] × 100. Minimal hemolytic concentrations (MHCs) were defined as the compound concentrations causing 10% hemolysis.
structure (smiles),measurement,setting,value
"O=C1Nc2cc(OC(F)(F)F)ccc2C1(c1c(Cl)nc2sccn12)c1c(Cl)nc2sccn12 [Compound 11, 3,3-bis(6-Chloroimidazo[2,1-b]thiazol-5-yl)-6-(trifluoromethoxy)indolin-2-one]","Microbial growth, C. albicans",C. albicans ATCC 10231,did not inhibit the growth
same,activity at 100 µM,"C. albicans ATCC 10231; Candida albicans, ATCC10231, read-out: Microbial growth, C. albicans",108 ± 8.5%
same,"Hemolytic activity, percentage values",[1]; 1.56 µM,0.9 ± 1.8%
same,"Hemolytic activity, percentage values",[1]; 3.125 µM,1.1 ± 1.2%
same,"Hemolytic activity, percentage values",[1]; 6.25 µM,2.3 ± 0.2%
same,"Hemolytic activity, percentage values",[1]; 12.5 µM,2.2 ± 0.5%
same,"Hemolytic activity, percentage values",[1]; 25 µM,1.8 ± 1.5%
same,"Hemolytic activity, percentage values",[1]; 50 µM,0.7 ± 1.5%
same,"Hemolytic activity, percentage values",[1]; 100 µM,1.1 ± 0.4%
same,hemolytic activity,[1]; range 100–1.56 µM,did not show an appreciable hemolytic activity; also recorded: no hemolytic property
